Test results as given in ChEMBL document CHEMBL1201862, “PubChem BioAssay data set” (2004).
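Following 48 hours of exposure in 96-well plates, responses at five concentrations were used to interpolate endpoints linearly. GI50 marks 50% less growth.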 Calls of active or inactive are those of the source. Cut-off read from the data, not from the text of the source: active = GI50 up to about 1.1 µM and inactive = higher.

Tests used:
Assay in all cases: NCI anticancer screen, dose series, 48 h
HOP-62 = test system: HOP-62
KM12 = test system: KM12
U-251 = test system: U-251
OVCAR-8 = test system: OVCAR-8
COLO 205 = test system: COLO 205
HCT-15 = test system: HCT-15
EKVX = test system: EKVX
SK-MEL-2 = test system: SK-MEL-2
SW-620 = test system: SW-620
HL-60 = test system: HL-60
HCC 2998 = test system: HCC 2998
OVCAR-3 = test system: OVCAR-3
SF-539 = test system: SF-539
NCI-H23 = test system: NCI-H23
OVCAR-5 = test system: OVCAR-5
SF-268 = test system: SF-268
ACHN = test system: ACHN
LOX IMVI = test system: LOX IMVI
SK-OV-3 = test system: SK-OV-3
HOP-92 = test system: HOP-92

SMILES | GI50 (HOP-62) | GI50 (KM12) | GI50 (U-251) | GI50 (OVCAR-8) | GI50 (COLO 205) | GI50 (HCT-15) | GI50 (EKVX) | GI50 (SK-MEL-2) | GI50 (SW-620) | GI50 (HL-60) | GI50 (HCC 2998) | GI50 (OVCAR-3) | GI50 (SF-539) | GI50 (NCI-H23) | GI50 (OVCAR-5) | GI50 (SF-268) | GI50 (ACHN) | GI50 (LOX IMVI) | GI50 (SK-OV-3) | GI50 (HOP-92)
CC(=O)Nc1ccc(C(=O)N2N=C(C)/C(=C/c3ccc(O)cc3)C2=O)cc1 | > 100 µM (inactive) | > 100 µM (inactive) | > 100 µM (inactive) | > 100 µM (inactive) | > 100 µM (inactive) | > 100 µM | > 100 µM (inactive) | > 100 µM (inactive) | > 100 µM (inactive) | > 100 µM (inactive) | > 100 µM (inactive) | > 100 µM (inactive) | > 100 µM (inactive) | > 100 µM (inactive) | > 100 µM (inactive) | > 100 µM (inactive) | > 100 µM (inactive) | > 100 µM (inactive) |  | 
CC1=Nc2nc(Cl)cn2C(=O)C1(Cl)Cl | > 10 µM (inactive) | > 10 µM (inactive) | > 10 µM (inactive) | > 10 µM (inactive) | > 10 µM (inactive) | > 10 µM | > 10 µM (inactive) | > 10 µM (inactive) | > 10 µM (inactive) | > 10 µM (inactive) | > 10 µM (inactive) | > 10 µM (inactive) | > 10 µM (inactive) | > 10 µM (inactive) | > 10 µM (inactive) | > 10 µM (inactive) | > 10 µM (inactive) | > 10 µM (inactive) | > 10 µM (inactive) | 
CC(=N/NC(=S)Nc1c(C)n(C)n(-c2ccccc2)c1=O)/C(C)=N\NC(=S)Nc1c(C)n(C)n(-c2ccccc2)c1=O | > 100 µM (inactive) | > 100 µM (inactive) | > 100 µM (inactive) | > 100 µM (inactive) | > 100 µM (inactive) | > 100 µM | > 100 µM (inactive) | > 100 µM (inactive) | > 100 µM (inactive) | > 100 µM (inactive) | > 100 µM (inactive) | > 100 µM (inactive) | > 100 µM (inactive) | > 100 µM (inactive) | > 100 µM (inactive) | > 100 µM (inactive) | > 100 µM (inactive) |  | > 100 µM (inactive) | > 100 µM (inactive)
Oc1cc2cc(O)nc(O)c2c(O)n1 | > 100 µM (inactive) | > 100 µM (inactive) | > 100 µM (inactive) |  | > 100 µM (inactive) | > 100 µM |  |  | > 100 µM (inactive) | > 100 µM (inactive) |  | > 100 µM (inactive) | > 100 µM (inactive) | > 100 µM (inactive) | > 100 µM (inactive) | > 100 µM (inactive) |  | > 100 µM (inactive) | > 100 µM (inactive) | > 100 µM (inactive)
COc1ccc(-c2c3c(nc4[nH]c(=S)[nH]c(=S)c24)CCCC3)cc1OC | 19.6 µM (inactive) | 30.9 µM (inactive) | 18.4 µM (inactive) | 23.9 µM (inactive) | 45 µM (inactive) | 30.1 µM | 22.4 µM (inactive) |  | 35.8 µM (inactive) | 24.7 µM (inactive) |  | 52.1 µM (inactive) | 15.3 µM (inactive) | 29.3 µM (inactive) | 28.8 µM (inactive) | 31 µM (inactive) | 51.1 µM (inactive) | 16.8 µM (inactive) | 44.4 µM (inactive) | 
Cc1cccc(NC(N)=S)c1 | > 100 µM (inactive) | > 100 µM (inactive) | > 100 µM (inactive) |  |  | > 100 µM | > 100 µM (inactive) | > 100 µM (inactive) |  | > 100 µM (inactive) | > 100 µM (inactive) | > 100 µM (inactive) | > 100 µM (inactive) | > 100 µM (inactive) | > 100 µM (inactive) | > 100 µM (inactive) | > 100 µM (inactive) | > 100 µM (inactive) | > 100 µM (inactive) | 
COC(=O)C1=C(C)N2CCSC2(C)C(C(=O)OC)C1c1cccc(Cl)c1 (stereo not drawn) | 18.9 µM (inactive) | 18.8 µM (inactive) |  | 22.6 µM (inactive) | 18.5 µM (inactive) |  | 12.6 µM (inactive) | 17.7 µM (inactive) | 37.1 µM (inactive) | 12.4 µM (inactive) | 21 µM (inactive) | 15.6 µM (inactive) | 11.5 µM (inactive) | 20.5 µM (inactive) |  | 18.7 µM (inactive) | 24.8 µM (inactive) |  |  | 13.4 µM (inactive)
CC1CC2C3CCC4=CC(=O)C=CC4(C)C3(F)C(O)CC2(C)C1(O)C(=O)COP(=O)(O)O (stereo not drawn) | > 100 µM (inactive) | > 100 µM (inactive) | > 100 µM (inactive) | > 100 µM (inactive) | > 100 µM (inactive) | > 100 µM | > 100 µM (inactive) | > 100 µM (inactive) | > 100 µM (inactive) | > 100 µM (inactive) | > 100 µM (inactive) | > 100 µM (inactive) | > 100 µM (inactive) | > 100 µM (inactive) | > 100 µM (inactive) | > 100 µM (inactive) | > 100 µM (inactive) | > 100 µM (inactive) |  | > 100 µM (inactive)
